According to ChEMBL document CHEMBL1150441:
Calls of active or inactive are those of the source. The calls are words filed in the database; no cut-off is given here.

What was measured:
[1] = target: T1, Estrogen receptor (Rattus norvegicus) (UniProt P06211+Q62986); test: Effect on serum cholesterol level as tissue specific estrogen agonist assay in ovariectomized rat model: significant decrease at <10 mg/kg dose; format: functional, organism-based; conditions: filed as agonist
[2] = target: T1, Estrogen receptor (Rattus norvegicus); test: Effect on uterine weight as tissue specific estrogen agonist assay in ovariectomized rat model: significant increase at <=10 mg/kg dose; format: functional, organism-based; conditions: filed as agonist
[3] = species: Rattus norvegicus; test: Effect on uterine weight as tissue specific estrogen agonist assay in ovariectomized rat model: Not significant; format: functional, organism-based
[4] = target: T1, Estrogen receptor (Rattus norvegicus); test: Effect on serum cholesterol level as tissue specific estrogen agonist assay in ovariectomized rat model: significant decrease at <=10 mg/kg dose; format: functional, organism-based; conditions: filed as agonist
[5] = species: Rattus norvegicus; test: Effect on serum cholesterol level as tissue specific estrogen agonist assay in ovariectomized rat model: Not significant; format: functional, organism-based
[6] = test system: Rattus norvegicus; test: Effect on uterine weight as tissue specific estrogen agonist assay in ovariectomized rat model at 0.1 mg/kg dose: Not significant; format: functional, organism-based; parameters: dose 0.1 mg/kg
[7] = test system: MCF7; test: Inhibition of MCF-7 cell proliferation stimulated by 10e-12 M estradiol: Not active; format: functional, cell-based; conditions: Homo sapiens

In the case of `Oc1ccc2c(Cc3ccc(OCCN4CCCCC4)cc3)c(C3CCCCC3)sc2c1`, the Activity [1] is reported as “Agonist” and the Activity [2] is reported as “Agonist”.

For `Cc1sc2cc(O)ccc2c1C(=O)c1ccc(OCCN2CCCCC2)cc1`, the Activity [3] was “inactive”.

In the case of `CCc1sc2cc(O)ccc2c1Cc1ccc(OCCN2CCCCC2)cc1`, the Activity [2] is reported as “Agonist” and the Activity [4] is reported as “Agonist”.

With `Cc1sc2cc(O)ccc2c1Cc1ccc(OCCN2CCCCC2)cc1` the Activity [5] was “inactive” and the Activity [3] was “inactive”.

In the case of `CC(C)c1sc2cc(O)ccc2c1C(=O)c1ccc(OCCN2CCCCC2)cc1`, the Activity [6] is reported as “inactive”.

With `CCc1sc2cc(O)ccc2c1C(=O)c1ccc(OCCN2CCCCC2)cc1` the Activity [3] was “inactive”.

In the case of `Oc1ccc2c(Cc3ccc(OCCN4CCCCC4)cc3)c(C3CCCC3)sc2c1`, the Activity [6] is reported as “inactive” and the Activity [4] is reported as “Agonist”.

`C[C@]12CC[C@@H]3c4ccc(O)cc4CC[C@H]3[C@@H]1CC[C@@H]2O` was tested, and the Dose [7] was “inactive”.

`O=C(c1ccc(OCCN2CCCCC2)cc1)c1c(C2CCCC2)sc2cc(O)ccc12` was tested, and the Activity [6] was “inactive”.

With `CC(C)c1sc2cc(O)ccc2c1Cc1ccc(OCCN2CCCCC2)cc1` the Activity [2] was “Agonist” and the Activity [4] was “Agonist”.

With `Oc1ccc2c(C(O)c3ccc(OCCN4CCCCC4)cc3)c(C3CCCC3)sc2c1` (configuration not stated) the Activity [5] was “inactive”.

With `Oc1ccc2c(Cc3ccc(OCCN4CCCCC4)cc3)c([C@H]3CC[C@H](O)CC3)sc2c1` the Activity [6] was “inactive”.
